One assay concerns MCF7 breast cancer cells. As to the kind of experiment: Activity Assay 6: CyQuant cell growth inhibition, MCF7. It counts as cell-based. To be noted: Homo sapiens, 144 h, MCF7, 6 days. How it is done: (§1) We analysed the ability of compounds to inhibit the in vitro growth of human cancer cells. Cell proliferation assays were performed using the CyQuant™ assay system (Molecular Probes, Inc. USA) according to the manufacturer's instructions. MCF7 breast, A2780 ovarian and PC3 and LNCAP prostate cancer cells were plated in 96 well plates, at a density of 1000 cells for MCF7 cells or 5000 cells for M780/PC3/LNCAP cells, in 100 μl of cell culture medium per well. Compounds were added a minimum of 5 hours later, in serial dilutions in cell culture medium, in 100 μl volumes at 2× final concentration. Cell culture medium was removed after 4 (A2780, PC3 or LNCAP cells) or 6 days (MCF7 cells) by inversion of the plate onto blotting paper and cells were gently washed once with 200 μl PBS. Plates were frozen immediately for a minimum of one hour at −80° C. and then thawed. 200 μl of 1× CyQuant cell lysis buffer supplemented with dye, made according to the manufacturer's instruction, was added immediately to each well and incubated at room temperature for 3-5 minutes. Fluorescence was then measured for each well using a Cytofluor II Fluoresence Multiwell Plate Reader and CytoFluor II software with filters at 480 nm for excitation and 520 nm for emission maxima. Cell proliferation was determined for mean values of duplicate samples as percentages relative to untreated cell samples (=100%). Growth inhibition curves were used to derive IC50 values.

Assay [1] has as its system HDAC (Hela Nuclear Extract). In words: Activity Assay 5: in vitro HDAC fluorescent activity assay (Biomol kit). It counts as biochemical. To be noted: compounds reduced with DTT prior to analysis, 37° C., 1 hour, read-out: Inhibition of HDAC activity IC50. The procedure:
We analysed the ability of compounds to inhibit in vitro HDAC activity. In vitro HDAC assays were performed using a HDAC fluorescent activity assay kit (Biomol, UK) according to the manufacturer's instructions. Compounds were reduced prior to analysis; 1 mM compound was reduced with 30 mM DTT in DMSO overnight at room temperature, protected from light. Reactions were then set up in a 96-well plate. […] Serial dilutions were set up for each compound. Reactions containing Hela extract only and assay buffer only were also set up. 25 μl diluted Fluor de Lys™ substrate (100-fold in assay buffer) was added to each reaction, which were then incubated at 37° C. for 1 hour. The reaction was stopped by addition of 50 μl Fluor de Lys™ Developer (20-fold dilution in assay buffer, plus TSA diluted 100-fold). […] Inhibition of in vitro HDAC activity was determined for mean values of duplicate samples as percentages relative to HeLa extract only reactions. IC50 values were calculated using GraphPad Prism software.

Assay [2] deals with A2780 ovarian cancer cells. As to the kind of experiment: Activity Assay 6: CyQuant cell growth inhibition, A2780. Format: cell-based. To be noted: Homo sapiens, 96 h, A2780, 4 days. How it is done:
as §1

Assay [3] concerns PC3 prostate cancer cells. As to the kind of experiment: Activity Assay 6: CyQuant cell growth inhibition, PC3. It counts as cell-based. The settings on record: Homo sapiens, 96 h, PC3, 4 days. The procedure:
as §1

Assay [4] relates to TNFα production from peripheral blood mononuclear cells (PBMCs). As to the kind of experiment: Activity Assay 7: LPS-induced TNFα secretion from PBMCs (QUANTIKINE immunoassay). Format: cell-based. To be noted: Homo sapiens, PBMC. The procedure: We analysed the ability of compounds to inhibit the production of TNFα from peripheral blood mononuclear cells (PBMCs). TNF-α immunoassays were carried out using the QUANTIKINE® Human TNF-α assay kit (R&D systems, Abingdon UK) according to the manufacturer's instructions. […] Compounds were added 1 hour later in volumes of 100 μl at 6× final concentration. Five hours later lipopolysaccharide (LSP, Sigma, Poole, UK) was added in a volume of 10 μl at 60× final concentration. Plates were mixed and left overnight at 37° C. 5% C02. Plates were centrifuged and cell supernatant was transferred to a new plate. The QUANTIKINE® assay reagents and standards were prepared according to the manufacturer instructions. The QUANTIKINE® assay plate was prepared by adding 50 μl of assay diluent RD1F into each well. This was followed by 200 μl of standard or 100 μl of calibrator diluent plus 100 μl cell supernatant; this was incubated for 2 hours at room temperature (RT). The plate was washed using wash buffer 4 times. After the final wash the plate was tapped on clean paper towel to remove all residual buffer. 200 μl of TNF-α conjugate was added to each well and incubated for 1 hour at RT. The plate was then washed as before. The required amount of substrate solution was prepared by adding equal volumes of colour reagents A and B, protecting from light, 200 μl of this mix was added to each well and incubated for 20 mins at RT, protected from light. 50 μl of stop solution was added to each well in the same order as the substrate solution and the plate was read on a Biorad 680 96 well plate reader (Bio-Rad, Hemel Hempstead, UK) at 450 nm with λ correction at 570 nm. TNF-α levels were determined for mean values of duplicate samples using absorbance in nm, calibration zero values were subtracted from all results to correct for the addition of calibrator diluent in the assay.

For assay [5], the system named is LNCAP prostate cancer cells. As to the kind of experiment: Activity Assay 6: CyQuant cell growth inhibition, LNCAP. It counts as cell-based. The settings on record: Homo sapiens, 96 h, 4 days. The procedure:
as §1

The subject of another assay is MCF7 cells. In words: Activity Assay 3: cell cycle distribution and survival by propidium iodide flow cytometry. It counts as cell-based. The settings on record: MCF7, ~10×IC50 for growth inhibition, 24, 48 or 72 hours. The procedure: Method; MCF7 cells were incubated with indicated concentrations of compounds, or left untreated as a control, for various times, as detailed in the figure legends. Cells were collected and the proportion of cells in different phases of the cell cycle determined using propidium iodide staining and flow cytometry as previously described (Purohit et al., Int J Ca 85, 584-9 2000). The proportion of cells with <G0/G1 content (pre G0) relative to total cells was calculated first. The proportion of cells in different cell cycle phases (G0/G1, S, G2/M) was calculated as a proportion of all cells in the cell cycle (i.e., total cells minus cells with <G0/G1 content).
MCF7 cells were incubated with the indicated concentrations of compounds (each equivalent to ˜10×IC50 values for growth inhibition), or DMSO as a solvent control, for 24, 48 or 72 hours. The proportion of cells in different phases of the cell cycle was determined by flow cytometry. Data shown are mean values ±SD, derived from two separate experiments, relative to untreated cells which are normalised to 1.

As usually defined, the IC50 is the concentration that inhibits the measured activity by half. With `CC(C)[C@H]1NC(=O)[C@H]2CSSCC/C=C/[C@H](CC(=O)N[C@H](Cc3ccccc3)C(=O)N2)OC(=O)CNC1=O` [Compound 9B, (E)-(1S,7R,10S,21R)-21-benzyl-7-isopropyl-2-oxa-12,13-dithia-5,8,20,23-tetraaza-bicyclo[8.7.6]tricos-16-ene-3,6,9,19,22-pentaone], the IC50 with MCF7 breast cancer cells is 2.9 nM; in assay [1], 25 nM.
For `CC(C)[C@H]1NC(=O)C[C@H]2/C=C/CCSSC[C@@H](NC1=O)C(=O)N[C@H](C(C)C)C(=O)NCC(=O)O2` [Compound 9C, (E)-(1S,7R,10S,21R)-7,21-diisopropyl-2-oxa-12,13-dithia-5,8,20,23-tetraaza-bicyclo[8.7.6]tricos-16-ene-3,6,9,19,22-pentaone], in that order: 5.2 nM and 9.9 nM.
The inhibition is the drop in the measured response relative to a control, in per cent. Read a low inhibition as a weak effect. Consider `CC(C)[C@H]1NC(=O)[C@H]2CSSCC/C=C/[C@H](CC(=O)N[C@H](C)C(=O)N2)OC(=O)[C@@H](C)NC1=O` [Compound 9E, (E)-(1S,4R,7R,10S,21R)-7-isopropyl-4,21-dimethyl-2-oxa-12,13-dithia-5,8,20,23-tetraaza-bicyclo[8.7.6]tricos-16-ene-3,6,9,19,22-pentaone], for which the IC50 in the assay with MCF7 breast cancer cells stood at 117 nM; in assay [2], 651 nM; in assay [3], 296 nM; in assay [1], 87 nM; in assay [5] it was 1190 nM. The compound further gave an inhibition at 0.2 µM in assay [4] (Concentration 200 nM) of 84%.
Take `CC(C)[C@H]1NC(=O)[C@H]2CSSCC/C=C/[C@H](CC(=O)N[C@H](CCC(=O)O)C(=O)N2)OC(=O)CNC1=O` [Compound 10F, 3-((E)-(1S,7R,10S,21R)-7-Isopropyl-3,6,9,19,22-pentaoxo-2-oxa-12,13-dithia-5,8,20,23-tetraaza-bicyclo[8.7.6]tricos-16-en-21-yl)-propionic acid]: the values for the IC50 (in the assay with MCF7 breast cancer cells; in assay [1]) were 457 nM and 1.7 nM, respectively.
With `O=C(CCCCCCC(=O)Nc1ccccc1)NO` [SAHA, Suberoylanilide hydroxamic acid, reference compound], in the assay on MCF7 cells, the “cell cycle distribution and survival” value was “induce a predominant G2/M phase arrest and cell death”.
Consider `CC(C)[C@H]1NC(=O)[C@H]2CSSCC/C=C/[C@H](CC(=O)N[C@H](CCC(=O)OC(C)(C)C)C(=O)N2)OC(=O)CNC1=O` [Compound 9F, 3-((E)-(1S,7R,10S,21R)-7-Isopropyl-3,6,9,19,22-pentaoxo-2-oxa-12,13-dithia-5,8,20,23-tetraaza-bicyclo[8.7.6]tricos-16-en-21-yl)-propionic acid tert-butyl ester], for which the 50% inhibitory concentration (IC50) with MCF7 breast cancer cells was 1.6 nM; in assay [2], 3 nM; in assay [3], 0.8 nM; in assay [1], 8 nM; in assay [5], 6.7 nM. In assay [4] (Concentration 7.5 nM), this compound registered an inhibition at 0.0075 µM of 68%.

The values are drawn from patent US7977304B2, “FK 228 derivates as HDAC inhibitors” (University of Southampton Highfield, priority 2005, dated 2011).
